Source: paper PMC11434129, “Mechanistic Insights from the Crystal Structure and Computational Analysis of the Radical SAM Deaminase DesII” (Advanced Science, 2024)

Tests used:
DesII [1] = target: T1, DesII (Streptomyces venezuelae, UniProt Q9ZGH1); assay: X-ray crystal structure, […] Å; format: binding
T1 construct: C-terminal His6-tag kept; selenomethionine derivative used for phasing; [Fe4S4] cluster; N-terminal 7-9 residues disordered in crystal

[2] = target: T2, DesII (second DesII expression construct) (Streptomyces venezuelae, UniProt Q9ZGH1); assay: X-ray crystal structure, […] Å; format: binding; settings: coordinates fourth iron of [Fe4S4] cluster in one monomer; pH 6.0 crystals
T2 construct: pSJ5 vector, TrxA fusion, His8-tag and TEV site; N-terminal tag removed by TEV; [Fe4S4] cluster; loop D323-E337 disordered
T2 sequence (Q9ZGH1 1-485): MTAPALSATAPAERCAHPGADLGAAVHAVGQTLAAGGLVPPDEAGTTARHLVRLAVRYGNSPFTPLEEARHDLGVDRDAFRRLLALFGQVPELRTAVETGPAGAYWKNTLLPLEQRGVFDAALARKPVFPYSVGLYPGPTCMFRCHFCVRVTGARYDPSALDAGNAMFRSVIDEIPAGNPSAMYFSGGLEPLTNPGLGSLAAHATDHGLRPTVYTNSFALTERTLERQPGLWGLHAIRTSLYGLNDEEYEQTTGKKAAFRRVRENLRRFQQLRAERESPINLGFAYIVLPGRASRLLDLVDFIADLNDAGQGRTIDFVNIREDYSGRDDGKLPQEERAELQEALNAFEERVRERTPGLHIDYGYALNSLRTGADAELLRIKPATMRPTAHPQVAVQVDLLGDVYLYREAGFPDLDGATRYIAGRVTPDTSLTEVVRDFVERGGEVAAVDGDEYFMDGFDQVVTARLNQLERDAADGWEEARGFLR

DesII [3] = target: T3, DesII (Streptomyces venezuelae, UniProt Q9ZGH1, E408Q); assay: deaminase activity assay; format: biochemical; settings: deamination
T3 construct: C-terminal His6-tag kept; selenomethionine derivative used for phasing; [Fe4S4] cluster; N-terminal 7-9 residues disordered in crystal

DesII [4] = target: T1, DesII; assay: deaminase activity assay; format: biochemical; settings: deamination
DesII [5] = target: T4, DesII (Streptomyces venezuelae, UniProt Q9ZGH1, E408A); assay: deaminase activity assay; format: biochemical; settings: deamination
T4 construct: C-terminal His6-tag kept; selenomethionine derivative used for phasing; [Fe4S4] cluster; N-terminal 7-9 residues disordered in crystal
T4 sequence (Q9ZGH1 whole entry E408A, the tested form may be a part): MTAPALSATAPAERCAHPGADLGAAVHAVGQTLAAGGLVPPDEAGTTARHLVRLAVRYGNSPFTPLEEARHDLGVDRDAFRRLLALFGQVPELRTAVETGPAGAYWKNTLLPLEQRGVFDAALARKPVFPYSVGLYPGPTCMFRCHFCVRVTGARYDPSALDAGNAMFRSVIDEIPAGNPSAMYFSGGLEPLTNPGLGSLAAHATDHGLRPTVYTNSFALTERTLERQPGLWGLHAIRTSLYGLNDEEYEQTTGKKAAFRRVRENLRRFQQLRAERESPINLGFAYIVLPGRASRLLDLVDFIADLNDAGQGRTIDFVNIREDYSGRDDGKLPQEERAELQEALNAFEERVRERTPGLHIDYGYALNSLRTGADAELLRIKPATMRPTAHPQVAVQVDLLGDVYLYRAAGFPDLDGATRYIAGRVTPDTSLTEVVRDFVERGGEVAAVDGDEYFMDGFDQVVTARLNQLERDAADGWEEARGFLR

T3 sequence (Q9ZGH1 whole entry E408Q, the tested form may be a part): as the sequence (Q9ZGH1 whole entry E408A, the tested form may be a part) above, with A408Q counted along it

CSCC[C@H](N)C(=O)O [Met, methionine]
X-ray crystal structure, 2.33 Å (DesII [1]; active sites of chains b and d): with methionine bound in the active sites of chains b and d
X-ray crystal structure, 2.04 Å [2]: coordinated with a water molecule and the other with methionine

C[S+](CC[C@H](N)C(=O)O)C[C@H]1O[C@@H](n2cnc3c(N)ncnc32)[C@H](O)[C@@H]1O (stereo partly drawn) [SAM, S-adenosyl-L-methionine]
X-ray crystal structure, 2.33 Å (DesII [1]; coordinated to [Fe4S4] cluster, chains a and c): A single molecule of SAM was found coordinated to the [Fe4S4] cluster in chains a

Cc1cn([C@H]2C[C@H](O)[C@@H](COP(=O)(O)OP(=O)(O)O[C@H]3O[C@H](C)[C@@H](N)[C@H](O)[C@H]3O)O2)c(=O)[nH]c1=O [compound 1, TDP-4-amino-4,6-dideoxy-D-glucose]
deaminase activity assay (DesII [3]): E408A and E408Q mutants were both constructed and found to retain deaminase activity
deaminase activity assay (DesII [4]): found to retain deaminase activity comparable to that of wildtype enzyme
deaminase activity assay (DesII [5]): E408A and E408Q mutants were both constructed and found to retain deaminase activity
